Columns and labels:
gram-positive bacteria = format: cell-based; conditions: used concurrently with colistin; data not shown
E. coli = assay: minimum inhibitory concentration (MIC) assay of colistin with mefloquine; format: cell-based
Experimental: The efficacy of colistin in inhibiting the growth and/or suppressing survival of E. coli in the presence of one inhibitor, mefloquine was assessed in a minimum inhibitory concentration (MIC) assay.

[1] = target: Escherichia coli H+-ATP synthase (Escherichia coli, UniProt P0AB98+P68699); conditions: cited from earlier work
iscS mutant = conditions: Rojas and Vasquez, 2005; cited from earlier work
[2] = tested on: wild-type, BW25113 E. coli cells; assay: colony formation unit (CFU) assay, parent strain; format: cell-based
Experimental: (§1) The cells were incubated with colistin at a final concentration of 1.25 ug/ml. […] 10 ul of cells were plated onto LB agar [no colistin] plates. Number of colonies were counted after overnight incubation at 37 C. Colony count was normalized to get the same starting amount of cells for all strains. […] Log change in colony forming units per ml (CFU/ml) of wild-type, BW25113 E. coli cells (mean±s.d.) in presence or absence of colistin and potassium tellurite. Cell were grown in the absence or presence of colistin (1.25 ug/ml), potassium tellurite (1.6 ug/ml) alone and combined. […] Number of colonies were counted after overnight incubation at 37 C. Colony count was normalized to get the same starting amount of cells for all strains.
For CFU measurements, 50 μl of stationary phase culture was inoculated into 5 ml of LB. 240 or 245 μl of the freshly diluted cells were placed into wells of a 96 well plate (Costar), 5 μl of colistin and or potassium tellurite were added into each well to obtain a final volume of 250 μl. The 96 well plates were then incubated at 37° C. At the 0, 3 and 6 hours time points, 20 μl of culture was collected and then serially diluted in 180 μl of 1×PBS, pH 7.2 (Fisher). A 10 μl portion of each dilution was plated onto LB agar (Fisher)), and the plate was incubated overnight at 37° C. Dilutions that yielded between 20 and 100 colonies were counted and CFU were normalized to reflect the same amount of cells for the starting cultures.
The cells were grown with or without colistin, aliquots were taken at defined time points and serial dilution of the cells plated, colony count allowed to quantify the bactericidal effect of colistin. We noticed that the iscS and ubiH mutants were slow growers and formed small size colonies compared to the parent strain.

P aeruginosa = conditions: recent studies; cited from earlier work
[3] = after intravenous administration of colistimethate (sodium); cited from earlier work
[4] = cited from earlier work
[5] = tested on: ubiH and iscS mutant E. coli cells; assay: colony formation unit (CFU) assay, deletion mutants; format: cell-based; conditions: colistin 1.25 ug/ml, FIG. 5A
Experimental: as §1
For CFU measurements, 50 μl of stationary phase culture was inoculated into 5 ml of LB. 240 or 245 μl of the freshly diluted cells were placed into wells of a 96 well plate (Costar), 5 μl of colistin and or potassium tellurite were added into each well to obtain a final volume of 250 μl. […] Dilutions that yielded between 20 and 100 colonies were counted and CFU were normalized to reflect the same amount of cells for the starting cultures.
The cells were grown with or without colistin, aliquots were taken at defined time points and serial dilution of the cells plated, colony count allowed to quantify the bactericidal effect of colistin. […]

Which results are given for `OC(c1cc(C(F)(F)F)nc2c(C(F)(F)F)cccc12)C1CCCCN1` (stereo not shown) [mefloquine]?
potentiation of colistin against gram-positive bacteria (gram-positive bacteria): potentiates colistin ability to decrease gram-positive bacteria; potentiation of colistin efficacy by mefloquine (E. coli; mefloquine at concentrations above 50 μg/ml or greater): dose-dependent potentiation of colistin efficacy

Which “inhibition of ATP-driven proton transport and ATP hydrolysis” value [1] does the source give for `CC[C@H]1/C=C/C=C/C[C@@H](C)[C@H](O)[C@@](C)(O)C(=O)[C@@H](C)[C@H](O)[C@@H](C)C(=O)[C@@H](C)[C@H](O)[C@@H](C)/C=C/C(=O)O[C@@H]2[C@H](C)[C@H](CC1)O[C@]1(CC[C@H](C)[C@H](C[C@@H](C)O)O1)[C@H]2C` [oligomycin] here?
The value was “weakly inhibited”.

Which results are given for `O=[Te]([O-])[O-].[K+].[K+]` [potassium tellurite]?
sensitivity of iscS mutant (iscS mutant): sensitive; effect on CFU ([2]; potassium tellurite 1.6 ug/ml, 3 hour time point): not or little affecting the CFU; growth inhibition ([2]; potassium tellurite 1.6 ug/ml, 6 hours): stronger growth inhibition

Which results are given for colistimethate?
antibacterial activity (P aeruginosa): non-active prodrug of colistin; plasma half-lives relative to those of the colistin generated [3]: approximately half

For colistin, which “stability in human plasma” value [4] is on record?
Its value is “more stable than colistimethate”.

What about the colony detection ([5]; 5 hour time point) of the same compound?
Its colony detection is “almost no colony detection”.

And the “viability of mutants when exposed to colistin” value [5]?
The value was “significant decrease in viability”.

What about the “viability of parent strain compared to non treated cells” value ([2]; colistin 1.25 ug/ml, 3 and 5 hour time points, FIG. 5A) of the same compound?
The value was “no significant decrease in viability”.

And the “viability (CFU) compared to non treated cells” value ([2]; colistin 1.25 ug/ml, 3 hour time point, FIG. 5B)?
The value was “no significant decrease in viability”.

What about the “viability (CFU)” value ([2]; colistin 1.25 ug/ml, 5 hour time point, FIG. 5B) of the same compound?
The value was “decrease in viability”.

What about the MIC of colistin (E. coli; in the absence of mefloquine) of the same compound?
The MIC of colistin was 6.3 µg/mL.

What about the MIC of colistin required to suppress growth (E. coli; in the presence of 50 μg/ml of mefloquine) of the same compound?
The MIC of colistin required to suppress growth was 6.3 µg/mL.

What about the MIC of colistin required to suppress growth (E. coli; in the presence of 100 μg/ml of mefloquine) of the same compound?
The MIC of colistin required to suppress growth was 3.1 µg/mL.

What about the MIC of colistin required to suppress growth (E. coli; in the presence of 200 μg/ml of mefloquine) of the same compound?
Its MIC of colistin required to suppress growth is 0.8 µg/mL.

With venturicidin as the compound, how does the “inhibition of ATP-driven proton transport and ATP hydrolysis” value [1] read?
The value was “strongly inhibited”.
